Assay: Pharmacokinetic analysis in blood plasma of cattle after single SC administration
Type: in vivo
Conditions: for concentration at 0.25 h / concentration at 0.5 h / concentration at 1 h / concentration at 2 h / concentration at 4 h / concentration at 7 h / concentration at 10 h / concentration at 24 h / concentration at 32 h / concentration at 48 h / concentration at 72 h: bovine, plasma, sc, 10 mg/kg, cattle; for concentration at 0.25 h: 0.25 h after administration; for concentration at 0.5 h: 0.5 h after administration; for concentration at 1 h: 1 h after administration; for concentration at 2 h: 2 h after administration; for concentration at 4 h: 4 h after administration; for concentration at 7 h: 7 h after administration; for concentration at 10 h: 10 h after administration; for concentration at 24 h: 24 h after administration; for concentration at 32 h: 32 h after administration; for concentration at 48 h: 48 h after administration; for concentration at 72 h: 72 h after administration
Experimental: This study determined the bioavailability, the pharmacokinetic profile of Compound A formulations for subcutaneous (SC) injection in the blood plasma of cattle after a single subcutaneous (SC) administration of 10 mg/kg body weight. Concentrations in the blood plasma and bronchial epithelial lining fluid concentrations were determined. Additional tissues were collected post mortem for compound concentration determination.
Compound A was formulated as described in Examples 1 and 2 above. The aqueous solution formulation was Compound A 15% w/v, 15 w/v Kollisolv P124, 6% w/v benzyl alcohol, 7% w/v citric acid, and QS Water, pH 5.2. The oily suspension formulation was Compound A 17.5% w/v, suspended with 0.1% Kolliphor HS, and QS Miglyol812.
Samples were collected into K-EDTA coated Monovettes®. The samples were collected from the Vena jugularis externa. Preferred was the left side of the body, on the opposite side of administration.
The tubes were gently shaken to ensure proper mixing of blood with the anti-coagulant and placed in ice water until centrifugation. K-EDTA-Blood samples were centrifuged at approximately 4° C. and a relative centrifugal force of 2000 for 10 min. Within 2 hours after collection, two aliquots (1, 2) of approximately 0.5 mL blood plasma were pipetted off each sample into labeled plastic (polypropylene) freezer vials.
Pharmacokinetic (PK) parameters (Table 10-2) were calculated using the Phoenix WinNonlin 8.1 software. PK parameters (at least: Cmax, Tmax, AUClast, HL_Lambda_Z, VZ_F, MRTlast, CL_F and F %) to describe the PK profile after SC compound administration.

[1] = both aqueous solution group and oily suspension group, SC 10 mg/kg
[2] = SC 10 mg/kg 15% aqueous solution
[3] = SC 10 mg/kg 17.5% oily suspension

## COCCNCc1ccc(C#Cc2ccc(C(=O)N[C@H](C(=O)NO)C(C)(C)N)cc2)cc1 [Compound A]
[1]
  Compound persistence in cattle: around 11 h
  Period of constant plasma plateau levels after treatment: 4 to 10 h
  Time for which compound was detected in bovine plasma, on average: 72 h
[2]
  concentration at 0.25 h: 1440 ng/mL
  concentration at 0.5 h: 1630 ng/mL
  concentration at 1 h: 1260 ng/mL
  concentration at 2 h: 567 ng/mL
  concentration at 4 h: 363 ng/mL
  concentration at 7 h: 395 ng/mL
  concentration at 10 h: 320 ng/mL
  concentration at 24 h: 47 ng/mL
  concentration at 32 h: 22 ng/mL
  concentration at 48 h: 11.5 ng/mL
  concentration at 72 h: 6.55 ng/mL
[3]
  concentration at 0.25 h: 1220 ng/mL
  concentration at 0.5 h: 1090 ng/mL
  concentration at 1 h: 571 ng/mL
  concentration at 2 h: 413 ng/mL
  concentration at 4 h: 356 ng/mL
  concentration at 7 h: 433 ng/mL
  concentration at 10 h: 319 ng/mL
  concentration at 24 h: 56.5 ng/mL
  concentration at 32 h: 30.8 ng/mL
  concentration at 48 h: 13.2 ng/mL
  concentration at 72 h: 7.28 ng/mL
